Data published in BigSolDB 2.1.

Cc1ccc(N)c([N+](=O)[O-])c1
Settings | solubility (mole fraction)
in 1,2-dichloroethane, 278.15 K | 0.0289
in 1,2-dichloroethane, 280.65 K | 0.0326
in 1,2-dichloroethane, 283.15 K | 0.0355
in 1,2-dichloroethane, 285.65 K | 0.0397
in 1,2-dichloroethane, 288.15 K | 0.0432
in 1,2-dichloroethane, 290.65 K | 0.0468
in 1,2-dichloroethane, 293.15 K | 0.0506
in 1,2-dichloroethane, 295.65 K | 0.0548
in 1,2-dichloroethane, 298.15 K | 0.0594
in 1,2-dichloroethane, 300.65 K | 0.0642
in 1,2-dichloroethane, 303.15 K | 0.0692
in 1,2-dichloroethane, 305.65 K | 0.0747
in 1,2-dichloroethane, 308.15 K | 0.0806
in 1,2-dichloroethane, 310.65 K | 0.087
in 1,2-dichloroethane, 313.15 K | 0.0937
in 1,2-dichloroethane, 315.65 K | 0.101
in 1,2-dichloroethane, 318.15 K | 0.109
in 1,4-dioxane, 283.15 K | 0.0404
in 1,4-dioxane, 285.65 K | 0.0452
in 1,4-dioxane, 288.15 K | 0.0507
in 1,4-dioxane, 290.65 K | 0.0568
in 1,4-dioxane, 293.15 K | 0.0637
in 1,4-dioxane, 295.65 K | 0.0712
in 1,4-dioxane, 298.15 K | 0.0794
in 1,4-dioxane, 300.65 K | 0.0883
in 1,4-dioxane, 303.15 K | 0.0986
in 1,4-dioxane, 305.65 K | 0.11
in 1,4-dioxane, 308.15 K | 0.121
in 1,4-dioxane, 310.65 K | 0.134
in 1,4-dioxane, 313.15 K | 0.149
in 2-butanone, 278.15 K | 0.12
in 2-butanone, 280.65 K | 0.128
in 2-butanone, 283.15 K | 0.136
in 2-butanone, 285.65 K | 0.144
in 2-butanone, 288.15 K | 0.153
in 2-butanone, 290.65 K | 0.162
in 2-butanone, 293.15 K | 0.171
in 2-butanone, 295.65 K | 0.181
in 2-butanone, 298.15 K | 0.191
in 2-butanone, 300.65 K | 0.202
in 2-butanone, 303.15 K | 0.213
in 2-butanone, 305.65 K | 0.224
in 2-butanone, 308.15 K | 0.236
in 2-butanone, 310.65 K | 0.249
in 2-butanone, 313.15 K | 0.261
in DMF, 278.15 K | 0.0984
in DMF, 280.65 K | 0.105
in DMF, 283.15 K | 0.112
in DMF, 285.65 K | 0.122
in DMF, 288.15 K | 0.131
in DMF, 290.65 K | 0.14
in DMF, 293.15 K | 0.15
in DMF, 295.65 K | 0.161
in DMF, 298.15 K | 0.171
in DMF, 300.65 K | 0.182
in DMF, 303.15 K | 0.194
in DMF, 305.65 K | 0.206
in DMF, 308.15 K | 0.219
in DMF, 310.65 K | 0.232
in DMF, 313.15 K | 0.247
in acetonitrile, 278.15 K | 0.0274
in acetonitrile, 280.65 K | 0.0302
in acetonitrile, 283.15 K | 0.0334
in acetonitrile, 285.65 K | 0.0369
in acetonitrile, 288.15 K | 0.0406
in acetonitrile, 290.65 K | 0.0447
in acetonitrile, 293.15 K | 0.0493
in acetonitrile, 295.65 K | 0.0543
in acetonitrile, 298.15 K | 0.0602
in acetonitrile, 300.65 K | 0.0657
in acetonitrile, 303.15 K | 0.0721
in acetonitrile, 305.65 K | 0.0794
in acetonitrile, 308.15 K | 0.0872
in acetonitrile, 310.65 K | 0.0955
in acetonitrile, 313.15 K | 0.105
in chlorobenzene, 278.15 K | 0.016
in chlorobenzene, 280.65 K | 0.0174
in chlorobenzene, 283.15 K | 0.0194
in chlorobenzene, 285.65 K | 0.0216
in chlorobenzene, 288.15 K | 0.0239
in chlorobenzene, 290.65 K | 0.0262
in chlorobenzene, 293.15 K | 0.0288
in chlorobenzene, 295.65 K | 0.0316
in chlorobenzene, 298.15 K | 0.0349
in chlorobenzene, 300.65 K | 0.0383
in chlorobenzene, 303.15 K | 0.0421
in chlorobenzene, 305.65 K | 0.0463
in chlorobenzene, 308.15 K | 0.0507
in chlorobenzene, 310.65 K | 0.0556
in chlorobenzene, 313.15 K | 0.0611
in chlorobenzene, 315.65 K | 0.0671
in chlorobenzene, 318.15 K | 0.0738
in ethanol, 278.15 K | 0.00983
in ethanol, 280.65 K | 0.0107
in ethanol, 283.15 K | 0.0118
in ethanol, 285.65 K | 0.0128
in ethanol, 288.15 K | 0.0139
in ethanol, 290.65 K | 0.0152
in ethanol, 293.15 K | 0.0165
in ethanol, 295.65 K | 0.0179
in ethanol, 298.15 K | 0.0194
in ethanol, 300.65 K | 0.021
in ethanol, 303.15 K | 0.0228
in ethanol, 305.65 K | 0.0246
in ethanol, 308.15 K | 0.0266
in ethanol, 310.65 K | 0.0289
in ethanol, 313.15 K | 0.0312
in ethyl acetate, 278.15 K | 0.076
in ethyl acetate, 280.65 K | 0.0816
in ethyl acetate, 283.15 K | 0.087
in ethyl acetate, 285.65 K | 0.0933
in ethyl acetate, 288.15 K | 0.0996
in ethyl acetate, 290.65 K | 0.106
in ethyl acetate, 293.15 K | 0.113
in ethyl acetate, 295.65 K | 0.12
in ethyl acetate, 298.15 K | 0.128
in ethyl acetate, 300.65 K | 0.136
in ethyl acetate, 303.15 K | 0.144
in ethyl acetate, 305.65 K | 0.153
in ethyl acetate, 308.15 K | 0.162
in ethyl acetate, 310.65 K | 0.172
in ethyl acetate, 313.15 K | 0.182
in isopropanol, 278.15 K | 0.0102
in isopropanol, 280.65 K | 0.0112
in isopropanol, 283.15 K | 0.0122
in isopropanol, 285.65 K | 0.0134
in isopropanol, 288.15 K | 0.0146
in isopropanol, 290.65 K | 0.0161
in isopropanol, 293.15 K | 0.0176
in isopropanol, 295.65 K | 0.0192
in isopropanol, 298.15 K | 0.0209
in isopropanol, 300.65 K | 0.0227
in isopropanol, 303.15 K | 0.0248
in isopropanol, 305.65 K | 0.0268
in isopropanol, 308.15 K | 0.0293
in isopropanol, 310.65 K | 0.0317
in isopropanol, 313.15 K | 0.0346
in methanol, 278.15 K | 0.00863
in methanol, 280.65 K | 0.00933
in methanol, 283.15 K | 0.0104
in methanol, 285.65 K | 0.0112
in methanol, 288.15 K | 0.0121
in methanol, 290.65 K | 0.0133
in methanol, 293.15 K | 0.0144
in methanol, 295.65 K | 0.0156
in methanol, 298.15 K | 0.0169
in methanol, 300.65 K | 0.0182
in methanol, 303.15 K | 0.0198
in methanol, 305.65 K | 0.0213
in methanol, 308.15 K | 0.023
in methanol, 313.15 K | 0.0268
in n-butanol, 278.15 K | 0.0126
in n-butanol, 280.65 K | 0.0138
in n-butanol, 283.15 K | 0.0152
in n-butanol, 285.65 K | 0.0166
in n-butanol, 288.15 K | 0.018
in n-butanol, 290.65 K | 0.0197
in n-butanol, 293.15 K | 0.0214
in n-butanol, 295.65 K | 0.0232
in n-butanol, 298.15 K | 0.0253
in n-butanol, 300.65 K | 0.0273
in n-butanol, 303.15 K | 0.0297
in n-butanol, 305.65 K | 0.0321
in n-butanol, 308.15 K | 0.0348
in n-butanol, 310.65 K | 0.0376
in n-butanol, 313.15 K | 0.0406
in n-propanol, 278.15 K | 0.0111
in n-propanol, 280.65 K | 0.012
in n-propanol, 283.15 K | 0.0132
in n-propanol, 285.65 K | 0.0143
in n-propanol, 288.15 K | 0.0157
in n-propanol, 290.65 K | 0.017
in n-propanol, 293.15 K | 0.0185
in n-propanol, 295.65 K | 0.0202
in n-propanol, 298.15 K | 0.0218
in n-propanol, 300.65 K | 0.0237
in n-propanol, 303.15 K | 0.0257
in n-propanol, 305.65 K | 0.0278
in n-propanol, 310.65 K | 0.0326
in n-propanol, 313.15 K | 0.0352
in tetrachloromethane, 278.15 K | 0.00242
in tetrachloromethane, 280.65 K | 0.00265
in tetrachloromethane, 283.15 K | 0.00297
in tetrachloromethane, 285.65 K | 0.00333
in tetrachloromethane, 288.15 K | 0.00371
in tetrachloromethane, 290.65 K | 0.00406
in tetrachloromethane, 293.15 K | 0.00452
in tetrachloromethane, 295.65 K | 0.00497
in tetrachloromethane, 298.15 K | 0.0055
in tetrachloromethane, 300.65 K | 0.00602
in tetrachloromethane, 303.15 K | 0.00662
in tetrachloromethane, 305.65 K | 0.00721
in tetrachloromethane, 308.15 K | 0.00797
in tetrachloromethane, 310.65 K | 0.00876
in tetrachloromethane, 313.15 K | 0.00963
in tetrachloromethane, 315.65 K | 0.0105
in tetrachloromethane, 318.15 K | 0.0117
in toluene, 278.15 K | 0.0118
in toluene, 280.65 K | 0.0131
in toluene, 283.15 K | 0.0146
in toluene, 285.65 K | 0.016
in toluene, 288.15 K | 0.0176
in toluene, 290.65 K | 0.0194
in toluene, 293.15 K | 0.0215
in toluene, 295.65 K | 0.0236
in toluene, 298.15 K | 0.0259
in toluene, 300.65 K | 0.0284
in toluene, 303.15 K | 0.0312
in toluene, 305.65 K | 0.0343
in toluene, 308.15 K | 0.0375
in toluene, 310.65 K | 0.0411
in toluene, 313.15 K | 0.045
